Results reported in ChEMBL document CHEMBL1144134, “New biphenyl compounds with DNA strand-scission activity from Clusia paralicola” (J Nat Prod, 1999).
Values after ≈ are worked out from the molar mass of the structure shown. Active and inactive are the calls of the source. No cut-off for these calls is given here.

Tests used:
[1] = system: KB; test: Cytotoxicity against human KB cells; type: functional, cell-based
[2] = Induction of DNA strand-scission activity assessed as relaxation of supercoiled DNA at 2.5 ug/ml; design: scale not given: the % may be the effect or the level left

Compound	EC50 [1]	Activity [2]
CC1(C)C=Cc2c(O)cc(-c3ccc(O)cc3)cc2O1 [CLUSIPARALICOLINE C]	5.3 µg/mL (≈ 19.8 µM)	inactive
CC(C)=CCC/C(C)=C/Cc1cc(O)c(O)cc1-c1cc(O)c(CC=C(C)C)c(O)c1 [CLUSIPARALICOLINE A]	3.8 µg/mL (≈ 8.99 µM)	77%
CC(C)=CCC/C(C)=C/Cc1cc(O)c(O)cc1-c1cc(O)c2c(c1)OC(C)(C)C=C2 [CLUSIPARALICOLINE B]	4.5 µg/mL (≈ 10.7 µM)	65%
